{
  "source": "patent US10208089B2",
  "about": "“Modulation of complement activity” (priority 2014, dated 2019)",
  "note": "Starred links: 1 amine or outer side, 2 acyl side, 3 side chain; linkers in the order of their positions; H or OH if unused. Positions of bridges follow the written chain, without caps; N, C: chain ends. Non-standard residues stand in square brackets, D forms with d. Residues, ends and D or L forms follow the SMILES beside them. Trp(7-aza) = N[C@@H](Cc1c[nH]c2ncccc12)C(=O)O; NMePhe(4-F) = CN[C@@H](Cc1ccc(F)cc1)C(=O)O; Phe(4-F) = N[C@@H](Cc1ccc(F)cc1)C(=O)O; mXylylene = c1cc(C[*:1])cc(C[*:2])c1; oXylylene = c1ccc(C[*:2])c(C[*:1])c1; pXylylene = c1cc(C[*:2])ccc1C[*:1]; Chg = N[C@H](C(=O)O)C1CCCCC1; Phg = N[C@H](C(=O)O)c1ccccc1; Tle = CC(C)(C)[C@H](N)C(=O)O; NMeS = CN[C@@H](CO)C(=O)O; NMeA = CN[C@@H](C)C(=O)O; Nva = CCC[C@H](N)C(=O)O; Sar = CNCC(=O)O",
  "data": [
    {"molecular_target": "C5 (Homo sapiens, UniProt P01031)", "sequence (P01031 19-1676)": "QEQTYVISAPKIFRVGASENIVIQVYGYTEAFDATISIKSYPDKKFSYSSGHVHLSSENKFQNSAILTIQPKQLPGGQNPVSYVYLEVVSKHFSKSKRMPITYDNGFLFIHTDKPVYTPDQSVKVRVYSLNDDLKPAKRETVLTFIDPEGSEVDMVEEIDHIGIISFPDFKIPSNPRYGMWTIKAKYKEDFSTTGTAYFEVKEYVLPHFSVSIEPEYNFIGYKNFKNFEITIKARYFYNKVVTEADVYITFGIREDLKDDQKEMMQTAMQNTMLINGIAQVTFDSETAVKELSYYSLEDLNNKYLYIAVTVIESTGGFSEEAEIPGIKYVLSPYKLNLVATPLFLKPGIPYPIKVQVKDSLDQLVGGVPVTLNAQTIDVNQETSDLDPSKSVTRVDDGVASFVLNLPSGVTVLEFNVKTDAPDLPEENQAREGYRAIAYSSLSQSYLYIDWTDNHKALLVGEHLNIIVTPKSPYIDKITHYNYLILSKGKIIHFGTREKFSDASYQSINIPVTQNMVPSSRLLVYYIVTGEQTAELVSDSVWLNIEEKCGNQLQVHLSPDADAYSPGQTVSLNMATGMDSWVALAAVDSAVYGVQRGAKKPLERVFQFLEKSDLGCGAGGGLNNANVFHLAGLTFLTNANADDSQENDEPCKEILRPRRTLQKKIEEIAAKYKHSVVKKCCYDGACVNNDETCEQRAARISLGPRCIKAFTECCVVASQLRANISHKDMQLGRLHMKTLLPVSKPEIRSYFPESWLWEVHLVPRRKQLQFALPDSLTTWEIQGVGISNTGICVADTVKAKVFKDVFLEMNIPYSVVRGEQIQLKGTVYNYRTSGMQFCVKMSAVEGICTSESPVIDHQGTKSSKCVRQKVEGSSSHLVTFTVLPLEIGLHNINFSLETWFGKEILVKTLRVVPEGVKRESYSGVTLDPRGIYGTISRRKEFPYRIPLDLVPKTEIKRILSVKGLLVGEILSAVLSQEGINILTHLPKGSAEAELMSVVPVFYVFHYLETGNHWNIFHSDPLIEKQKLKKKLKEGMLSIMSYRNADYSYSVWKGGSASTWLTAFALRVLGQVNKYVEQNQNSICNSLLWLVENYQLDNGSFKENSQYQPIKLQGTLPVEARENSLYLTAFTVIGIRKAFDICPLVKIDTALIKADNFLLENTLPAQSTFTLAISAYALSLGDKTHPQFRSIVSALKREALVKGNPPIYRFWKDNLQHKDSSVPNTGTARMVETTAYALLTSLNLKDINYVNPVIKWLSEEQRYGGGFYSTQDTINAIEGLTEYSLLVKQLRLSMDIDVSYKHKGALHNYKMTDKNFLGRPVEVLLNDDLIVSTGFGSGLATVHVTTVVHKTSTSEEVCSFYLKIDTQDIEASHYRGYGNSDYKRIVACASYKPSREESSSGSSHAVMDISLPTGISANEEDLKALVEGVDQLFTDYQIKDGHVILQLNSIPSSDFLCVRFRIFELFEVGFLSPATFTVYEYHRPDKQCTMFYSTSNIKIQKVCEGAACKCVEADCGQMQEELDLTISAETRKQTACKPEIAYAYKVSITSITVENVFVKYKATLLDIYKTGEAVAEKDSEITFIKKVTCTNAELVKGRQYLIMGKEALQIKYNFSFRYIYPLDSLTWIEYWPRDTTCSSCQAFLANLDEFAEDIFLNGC", "assay": "Human hemolysis assay (RBC lysis assay using complete human sera)", "assay_type": "cell-based", "design": "with complete human sera (Complement Technology, Tyler Tex.) and polypeptides; tissue Complement Technology, Tyler Tex; host or cells: complete human serum", "conditions": "inhibition of lysis of antibody-sensitized sheep erythrocytes, complete human sera", "units": {"IC50": "nM"}, "values": [
      {"molecule": "CC(=O)N[C@H]1CSCc2cccc(c2)CSC[C@@H](C(=O)N[C@@H](CC(=O)O)C(=O)N[C@H](C(=O)N[C@@H](Cc2ccc(O)cc2)C(=O)N[C@@H](Cc2c[nH]c3ccccc23)C(=O)N[C@@H](CCC(=O)O)C(=O)N[C@@H](Cc2ccccc2)C(N)=O)C(C)C)NC(=O)[C@H](Cc2ccccc2)NC(=O)[C@H](CCCNC(=N)N)NC(=O)[C@H](CCC(=O)O)NC(=O)[C@H](C(C)C)NC1=O", "note": "[Compound R3048, [mXylyl(1,6)]Ac-C-V-E-R-F-C-D-V-Y-W-E-F-NH2] (Ac-CVERFCDVYWEF-NH2; linker 1-6 via mXylylene)", "IC50": 19.3},
      {"molecule": "CCC[C@H](NC(=O)[C@@H]1CSCc2ccccc2CSC[C@H](NC(=O)[C@H](CCC)NC(C)=O)C(=O)N[C@@H](c2ccccc2)C(=O)N[C@@H]([C@@H](C)O)C(=O)N[C@@H](Cc2c[nH]c3ncccc23)C(=O)N[C@@H](CCC(=O)O)C(=O)N[C@@H](Cc2ccc(O)cc2)C(=O)N(C)[C@@H](CO)C(=O)N[C@@H](Cc2c[nH]cn2)C(=O)N1)C(N)=O", "note": "[Compound R3049, [oXylyl(2,10)]Ac-Nvl-C-Phg-T-azaTrp-E-Y-(N-Me)S-H-C-Nvl-NE2] (Ac-[Nva]C[Phg]T[Trp(7-aza)]EY[NMeS]HC[Nva]-NH2; linker 2-10 via oXylylene)", "IC50": "> 3100"},
      {"molecule": "CCC[C@H](N)C(=O)N[C@H]1CSCc2cccc(c2)CSC[C@@H](C(N)=O)NC(=O)CN(C)C(=O)[C@H](Cc2ccc(F)cc2)N(C)C(=O)[C@H](Cc2c[nH]cn2)NC(=O)[C@H](CO)N(C)C(=O)[C@H](Cc2ccc(F)cc2)N(C)C(=O)[C@H](c2ccccc2)NC(=O)[C@H](CO)N(C)C(=O)[C@H](Cc2ccc(O)cc2)NC1=O", "note": "[Compound R3051, [mXylyl(2,11)]Nvl-C-Y-(N-Me)S-Phg-(N-Me-4-F)Phe-(N-Me)S-H-(N-Me-4-F)-Phe-(N-Me)G-C-NH2] (H-[Nva]CY[NMeS][Phg][NMePhe(4-F)][NMeS]H[NMePhe(4-F)][Sar]C-NH2; linker 2-11 via mXylylene)", "IC50": "> 100000"},
      {"molecule": "CCC[C@H](N)C(=O)N[C@H]1CSCc2cccc(c2)CSC[C@@H](C(=O)N[C@H](C(=O)N(C)[C@@H](C)C(N)=O)c2ccccc2)NC(=O)[C@H](CC(C)C)NC(=O)CN(C)C(=O)[C@H](CC(N)=O)NC(=O)[C@H](c2ccccc2)NC(=O)[C@H](C(C)(C)C)NC(=O)[C@H](Cc2ccc(O)cc2)NC1=O", "note": "[Compound R3052, [mXylyl(2,9)]Nvl-C-Y-Tbg-Phg-N-(N-Me)G-L-C-Phg-(N-Me)A-NH2] (H-[Nva]CY[Tle][Phg]N[Sar]LC[Phg][NMeA]-NH2; linker 2-9 via mXylylene)", "IC50": "> 100000"},
      {"molecule": "CCC[C@H](NC(=O)[C@@H](NC(=O)[C@@H]1CCCN1C(=O)[C@H](Cc1ccc(O)cc1)NC(=O)[C@H](CCC(=O)O)NC(=O)[C@H](Cc1c[nH]c2ncccc12)NC(=O)[C@H](Cc1ccc(O)cc1)NC(=O)[C@@H](NC(=O)[C@H](CC(=O)O)NC(=O)[C@@H]1CSCc2cccc(c2)CSC[C@H](NC(=O)[C@@H](N)CCSC)C(=O)N[C@@H](C(C)C)C(=O)N[C@@H](CCC(=O)O)C(=O)N[C@@H](CCCNC(=N)N)C(=O)N[C@@H](Cc2ccccc2)C(=O)N1)C(C)(C)C)c1ccccc1)C(N)=O", "note": "[Compound R3057, [mXylyl(2,7)]M-C-V-E-R-F-C-D-Tbg-Y-azaTrp-E-Y-P-Phg-Nvl-NH2] (H-MCVERFCD[Tle]Y[Trp(7-aza)]EYP[Phg][Nva]-NH2; linker 2-7 via mXylylene)", "IC50": 12.4},
      {"molecule": "CCC[C@H](NC(=O)[C@@H]1CSCc2ccc(cc2)CSC[C@H](NC(=O)[C@H](CCC)NC(C)=O)C(=O)N[C@@H](C2CCCCC2)C(=O)N[C@@H]([C@@H](C)O)C(=O)N[C@@H](Cc2c[nH]c3ncccc23)C(=O)N[C@@H](CCC(=O)O)C(=O)N[C@@H](Cc2ccc(O)cc2)C(=O)N(C)[C@@H](CO)C(=O)N[C@@H](Cc2c[nH]cn2)C(=O)N1)C(N)=O", "note": "[Compound R3058, [pXylyl(2,10)]Ac-Nvl-C-Chg-T-azaTrp-E-Y-(N-Me)S-H-C-Nvl-NH2] (Ac-[Nva]C[Chg]T[Trp(7-aza)]EY[NMeS]HC[Nva]-NH2; linker 2-10 via pXylylene)", "IC50": "> 10000"},
      {"molecule": "CCC[C@H](NC(=O)[C@@H]1CSCc2ccc(cc2)CSC[C@H](NC(=O)[C@H](CCC)NC(C)=O)C(=O)N[C@@H](c2ccccc2)C(=O)N[C@@H]([C@@H](C)O)C(=O)N[C@@H](Cc2c[nH]c3ncccc23)C(=O)N[C@@H](CCC(=O)O)C(=O)N[C@@H](Cc2ccc(O)cc2)C(=O)N2CCC[C@H]2C(=O)N[C@@H](Cc2c[nH]cn2)C(=O)N1)C(N)=O", "note": "[Compound R3065, [pXy1y1(2,10)]Ac-Nvl-C-PhE-T-azaTrp-E-Y-P-H-C-Nvl-NH2] (Ac-[Nva]C[Phg]T[Trp(7-aza)]EYPHC[Nva]-NH2; linker 2-10 via pXylylene)", "IC50": 394},
      {"molecule": "CCC[C@H](NC(C)=O)C(=O)N[C@@H](CCC)C(=O)N[C@@H](Cc1ccc(O)cc1)C(=O)N[C@@H](CCC(=O)O)C(=O)N[C@@H](CC(N)=O)C(=O)N[C@H](C(=O)N[C@@H](Cc1ccc(O)cc1)C(=O)N[C@@H](Cc1c[nH]c2ncccc12)C(=O)N[C@@H](CCC(=O)O)C(=O)N[C@@H](Cc1ccc(O)cc1)C(=O)N1CCC[C@H]1C(=O)N[C@H](C(=O)N[C@@H](CCC)C(=O)N[C@@H](CCCCN)C(N)=O)C1CCCCC1)C(C)(C)C", "note": "[Compound R3072, Ac-Nvl-Nvl-Y-E-N-Tbg-Y-azaTrp-E-Y-P-Chg-Nvl-K-NH2] (Ac-[Nva][Nva]YEN[Tle]Y[Trp(7-aza)]EYP[Chg][Nva]K-NH2)", "IC50": 26.9},
      {"molecule": "CCC[C@H](NC(=O)[C@@H]1CSCc2cccc(c2)CSC[C@H](NC(=O)[C@H](CCC)NC(C)=O)C(=O)N[C@@H](c2ccccc2)C(=O)N[C@@H]([C@@H](C)O)C(=O)N[C@@H](Cc2c[nH]c3ncccc23)C(=O)N[C@@H](CCC(=O)O)C(=O)N[C@@H](Cc2ccc(F)cc2)C(=O)N(C)[C@@H](CO)C(=O)N[C@@H](Cc2c[nH]cn2)C(=O)N1)C(N)=O", "note": "[Compound R3073, [mXyly1(2,10)]Ac-Nvl-C-Phg-T-azaTrp-E-Phe(4-F)-(N-Me)S-H-C-Nvl-NH2] (Ac-[Nva]C[Phg]T[Trp(7-aza)]E[Phe(4-F)][NMeS]HC[Nva]-NH2; linker 2-10 via mXylylene)", "IC50": 403},
      {"molecule": "CCC[C@H](NC(=O)[C@@H]1CSCc2cccc(c2)CSC[C@H](NC(=O)[C@H](CCC)NC(C)=O)C(=O)N[C@@H](c2ccccc2)C(=O)N[C@@H]([C@@H](C)O)C(=O)N[C@@H](Cc2c[nH]c3ncccc23)C(=O)N[C@@H](CCC(=O)O)C(=O)N[C@@H](Cc2ccc(OC)cc2)C(=O)N(C)[C@@H](CO)C(=O)N[C@@H](Cc2c[nH]cn2)C(=O)N1)C(N)=O", "note": "[Compound R3074, [mXylyl(2,10)]Ac-Nvl-C-Phg-T-azaTrp-E-Tyr(OMe)-(N-Me)S-H-C-Nvl-NH2] (Ac-[Nva]C[Phg]T[Trp(7-aza)]EY(Me)[NMeS]HC[Nva]-NH2; linker 2-10 via mXylylene)", "IC50": 308},
      {"molecule": "CCC[C@H](N)C(=O)N[C@H]1CSCc2cccc(c2)CSC[C@@H](C(N)=O)NC(=O)CNC(=O)[C@H](Cc2ccc(F)cc2)N(C)C(=O)[C@H](Cc2c[nH]cn2)NC(=O)[C@H](CO)N(C)C(=O)[C@H](Cc2ccc(F)cc2)N(C)C(=O)[C@H](c2ccccc2)NC(=O)[C@H](CO)N(C)C(=O)[C@H](Cc2ccc(O)cc2)NC1=O", "note": "[Compound R3075, [mXylyl(2,11)]Nvl-C-Y-(N-Me)S-Phg-(N-Me-4-F)Phe-(N-Me)S-H-(N-Me-4-F)Phe-G-C-NH2] (H-[Nva]CY[NMeS][Phg][NMePhe(4-F)][NMeS]H[NMePhe(4-F)]GC-NH2; linker 2-11 via mXylylene)", "IC50": "> 75000"}
    ]},
    {"molecular_target": "C5 (Homo sapiens, UniProt P01031)", "assay": "Human hemolysis assay (RBC lysis assay using complete human sera)", "assay_type": "cell-based", "design": "with complete human sera (Complement Technology, Tyler Tex.) and polypeptides; tissue Complement Technology, Tyler Tex; host or cells: complete human serum", "conditions": "variants of R3021, R3002 or R3008", "values": [
      {"molecule": "CC(=O)N[C@H]1CSCc2cccc(c2)CSC[C@@H](C(=O)N[C@@H](CC(=O)O)C(=O)N[C@H](C(=O)N[C@@H](Cc2ccc(O)cc2)C(=O)N[C@@H](Cc2c[nH]c3ccccc23)C(=O)N[C@@H](CCC(=O)O)C(=O)N[C@@H](Cc2ccccc2)C(N)=O)C(C)C)NC(=O)[C@H](Cc2ccccc2)NC(=O)[C@H](CCCNC(=N)N)NC(=O)[C@H](CCC(=O)O)NC(=O)[C@H](C(C)C)NC1=O", "note": "[Compound R3048, [mXylyl(1,6)]Ac-C-V-E-R-F-C-D-V-Y-W-E-F-NH2] (Ac-CVERFCDVYWEF-NH2; linker 1-6 via mXylylene)", "ability to inhibit red blood cell lysis compared with the parent polypeptide (in words)": "increased the ability"}
    ]}
  ]
}
